Patent US4621077A, “Pharmacologically active biphosphonates, process for the preparation thereof and pharmaceutical compositions therefrom” (Istituto Gentili S.p.A., priority 1982, dated 1986)
Values joined by “and” are separate entries in the source; they are usually repeats but may differ in a detail not shown here. Equal values may be shown once.

How the values were obtained:
[1] = tested on: bone reabsorption (metaphyseal bone density); assay: Metaphyseal bone density / inhibition of bone reabsorption in rats treated for 7 days; format: in vivo; details: 7 days, rats
[2] = tested on: injection sites / skin; assay: Necrosis at the injection sites in rats (local skin toxicity)
Text: The symbol "x" represents a conventional score, that is "x" meand slight necrosis, "xx" means severe necrosis, "xxx" means very severe necrosis.

[3] = tested on: patients with tumoral osteolysis; details: comparison stated for other bisphosphonates, no own test shown; cited from earlier work

NCCC(O)(P(=O)(O)O)P(=O)(O)O [AHPrBP, 3-amino-1-hydroxypropylidene-1,1-bisphosphonate]
metaphysical density ([1]; 0.01 mg P/kg s.c., s.c. NaCl controls 29.72): 39.53 % volume of calcified tissue | metaphysical density ([1]; 0.1 mg P/kg s.c., s.c. NaCl controls 29.72): 50.31 % volume of calcified tissue | metaphysical density ([1]; 2.0 mg P/kg p.o., p.o. NaCl controls 28.45): 33.72 % volume of calcified tissue | necrosis at the injection sites ([2]; 0.01 mg P/kg, 1 day): .0. | necrosis at the injection sites ([2]; 0.01 mg P/kg, 2 day): .0. | necrosis at the injection sites ([2]; 0.01 mg P/kg, 3 day): .0. | necrosis at the injection sites ([2]; 0.01 mg P/kg, 4 day): .0. | necrosis at the injection sites ([2]; 0.01 mg P/kg, 5 day): .0. | necrosis at the injection sites ([2]; 0.01 mg P/kg, 6 day): .0. | necrosis at the injection sites ([2]; 0.01 mg P/kg, 7 day): .0. | necrosis at the injection sites ([2]; 0.1 mg P/kg, 1 day): .0. | necrosis at the injection sites ([2]; 0.1 mg P/kg, 2 day): .0. | necrosis at the injection sites ([2]; 0.1 mg P/kg, 3 day): .0. | necrosis at the injection sites ([2]; 0.1 mg P/kg, 4 day): .0. | necrosis at the injection sites ([2]; 0.1 mg P/kg, 5 day): .0. | necrosis at the injection sites ([2]; 1 mg P/kg, 1 day): xxx and .0. | necrosis at the injection sites ([2]; 1 mg P/kg, 2 day): xxx and .0. | necrosis at the injection sites ([2]; 1 mg P/kg, 3 day): .0. | necrosis at the injection sites ([2]; 10 mg P/kg, 1 day): xxx | necrosis at the injection sites ([2]; 10 mg P/kg, 2 day): xxx | local / topical skin toxicity, in words ([2]; rat, in vivo): The most toxic substance | fever after administration [3]: occurs very frequently
